Measurements published in publication PMC10709440, “High-throughput ligand profile characterization in novel cell lines expressing seven heterologous insect olfactory receptors for the detection of volatile plant biomarkers” (Scientific Reports, 2023).

Legend:
Drosophila OR10a = biological target: T1, Drosophila OR10a (Drosophila melanogaster, UniProt Q9VYZ1); assay: Calcium ion fluorescence (GCaMP6) assay, OR10a stable HEK293 cell line; type: cell-based; conditions: for activation at 1 µM: HEK293, read-out: OR10a Average response (VUAA1-normalized), 1 μM VOC; for activation at 1 µM / activation at 10 µM / activation at 100 µM: 50 μM VUAA1 = 1, responses not exceeding 0.05 considered 0; for activation at 10 µM: HEK293, read-out: OR10a Average response (VUAA1-normalized), 10 μM VOC; for activation at 100 µM: HEK293, read-out: OR10a Average response (VUAA1-normalized), 100 μM VOC; for OR10a response (VUAA1-normalized) at 1 μM / OR10a response (VUAA1-normalized) at 10 μM / OR10a response (VUAA1-normalized) at 100 μM: OR10a cell line; for OR10a response (VUAA1-normalized) at 1 μM: VOC concentration 1 μM; for OR10a response (VUAA1-normalized) at 10 μM: VOC concentration 10 μM; for OR10a response (VUAA1-normalized) at 100 μM: VOC concentration 100 μM; for DF norm AVERAGE OR10a: threshold 0.05, below shown as 0
T1 construct: expressed in transfected cells
T1 sequence (Q9VYZ1 1-406): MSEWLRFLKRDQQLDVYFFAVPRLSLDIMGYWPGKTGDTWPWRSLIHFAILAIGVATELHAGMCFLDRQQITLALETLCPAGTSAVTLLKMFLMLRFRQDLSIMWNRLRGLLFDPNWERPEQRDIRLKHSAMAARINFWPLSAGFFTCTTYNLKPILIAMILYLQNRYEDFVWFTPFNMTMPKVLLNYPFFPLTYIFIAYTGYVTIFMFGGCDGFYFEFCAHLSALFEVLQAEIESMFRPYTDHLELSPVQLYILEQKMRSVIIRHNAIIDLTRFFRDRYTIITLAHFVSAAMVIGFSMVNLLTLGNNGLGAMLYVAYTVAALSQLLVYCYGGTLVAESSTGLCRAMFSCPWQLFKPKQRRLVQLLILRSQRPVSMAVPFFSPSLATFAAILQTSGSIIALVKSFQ
T1 sequence (Q9VNB5 1-486 partner): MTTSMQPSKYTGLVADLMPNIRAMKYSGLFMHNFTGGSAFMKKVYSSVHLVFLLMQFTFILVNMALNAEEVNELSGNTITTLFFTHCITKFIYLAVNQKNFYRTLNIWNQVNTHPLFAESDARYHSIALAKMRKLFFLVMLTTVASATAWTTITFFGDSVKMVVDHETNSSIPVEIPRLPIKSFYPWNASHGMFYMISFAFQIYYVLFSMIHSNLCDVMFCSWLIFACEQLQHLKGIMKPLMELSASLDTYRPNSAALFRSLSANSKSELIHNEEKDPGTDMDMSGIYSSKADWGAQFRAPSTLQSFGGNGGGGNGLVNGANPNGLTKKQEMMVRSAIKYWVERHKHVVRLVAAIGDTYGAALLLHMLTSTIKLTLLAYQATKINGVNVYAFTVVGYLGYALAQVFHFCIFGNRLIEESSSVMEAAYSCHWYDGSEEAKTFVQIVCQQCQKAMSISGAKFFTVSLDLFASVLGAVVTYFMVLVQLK
Method in brief: (§1)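 HEK293 lines stably expressing each Drosophila OR with GCaMP6, doxycycline-induced (1 μg/mL) 48 or 72 h. Fluorescence recorded 5 s baseline then 30 s after VOC injection at pH 7.3; ΔF=(FMAX−F0)/F0, normalized to 50 µM VUAA1 response per line, triplicate wells averaged; concentration series 0.01–100 μM.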

Drosophila OR85b = biological target: T2, Drosophila OR85b (Drosophila melanogaster, UniProt Q9VHQ7); assay: Calcium ion fluorescence (GCaMP6) assay, OR85b stable HEK293 cell line; type: cell-based; conditions: for OR85b response (VUAA1-normalized) at 1 μM / OR85b response (VUAA1-normalized) at 10 μM / OR85b response (VUAA1-normalized) at 100 μM / Average response: OR85b cell line; for OR85b response (VUAA1-normalized) at 1 μM: VOC concentration 1 μM; for OR85b response (VUAA1-normalized) at 10 μM: VOC concentration 10 μM; for OR85b response (VUAA1-normalized) at 100 μM: VOC concentration 100 μM; for Average response: VUAA1-normalized response, mean of biological replicates; for DF norm AVERAGE OR85b: threshold 0.05, below shown as 0
T2 construct: expressed in transfected cells
T2 sequence (Q9VHQ7 1-390): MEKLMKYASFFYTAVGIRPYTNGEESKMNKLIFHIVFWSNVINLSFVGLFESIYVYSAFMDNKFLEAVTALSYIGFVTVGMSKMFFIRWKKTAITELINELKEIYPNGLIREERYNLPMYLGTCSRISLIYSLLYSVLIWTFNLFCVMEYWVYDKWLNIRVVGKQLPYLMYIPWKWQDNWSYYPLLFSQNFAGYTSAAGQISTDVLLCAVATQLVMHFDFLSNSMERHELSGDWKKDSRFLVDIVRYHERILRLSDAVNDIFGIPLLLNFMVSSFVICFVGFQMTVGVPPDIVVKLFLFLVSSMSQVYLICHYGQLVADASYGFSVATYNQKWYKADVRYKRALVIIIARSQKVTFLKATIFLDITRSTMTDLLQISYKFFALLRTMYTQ
T2 sequence (Q9VNB5 1-486 partner): T1 sequence (Q9VNB5 1-486 partner)
Method in brief: as §1

[1] = ligand concentration 1 (unit not given)
[2] = ligand concentration 10 (unit not given)
[3] = ligand concentration 100 (unit not given)

| SMILES | activation at 1 µM (Drosophila OR10a) | activation at 10 µM (Drosophila OR10a) | activation at 100 µM (Drosophila OR10a) | OR10a response (VUAA1-normalized) at 1 μM (Drosophila OR10a) | OR10a response (VUAA1-normalized) at 10 μM (Drosophila OR10a) | OR10a response (VUAA1-normalized) at 100 μM (Drosophila OR10a) | DF norm AVERAGE OR10a (Drosophila OR10a; [1]) | DF norm AVERAGE OR10a (Drosophila OR10a; [2]) | DF norm AVERAGE OR10a (Drosophila OR10a; [3]) | OR85b response (VUAA1-normalized) at 1 μM (Drosophila OR85b) | OR85b response (VUAA1-normalized) at 10 μM (Drosophila OR85b) | OR85b response (VUAA1-normalized) at 100 μM (Drosophila OR85b) | Average response (Drosophila OR85b; cc. 1 µM) | Average response (Drosophila OR85b; cc. 10 µM) | Average response (Drosophila OR85b; cc. 100 µM) | DF norm AVERAGE OR85b (Drosophila OR85b; [1]) | DF norm AVERAGE OR85b (Drosophila OR85b; [2]) | DF norm AVERAGE OR85b (Drosophila OR85b; [3]) |
| --- | --- | --- | --- | --- | --- | --- | --- | --- | --- | --- | --- | --- | --- | --- | --- | --- | --- | --- |
| Cc1ccccc1C [o-xylene] | 0% | 0% | 0% | 0.00 | 0.00 | 0.00 | 0 | 0 | 0 | 0.08 | 0.00 | 0.08 | 0.08 | 0.03 | 0.08 | 0.08035 | 0 | 0.08274 |
| Cc1ccc(C(C)C)cc1 [p-cymene] | 0% | 0% | 0% | 0.00 | 0.00 | 0.00 | 0 | 0 | 0 | 0.00 | 0.12 | 0.09 | 0.00 | 0.12 | 0.09 | 0 | 0.1172 | 0.09049 |
| Cc1ccc(C)cc1 [p-xylene] | 0% | 0% | 6.41% | 0.00 | 0.00 | 0.0641 | 0 | 0 | 0.06412 | 0.00 | 0.15 | 0.06 | 0.0373 | 0.15 | 0.06 | 0 | 0.1515 | 0.06066 |
